Reference: patent US20250340885A1, “COMPOSITIONS AND METHODS FOR MODULATING CONDITIONS ASSOCIATED WITH ALTERED ATP8B1 FUNCTION” (CLEVELAND STATE UNIVERSITY, priority 2024, published 2025)
Structures can show the parent of a compound that is named as a salt. Blank lines part the entries; values can stand above or below the compound they belong to.

Experiments:
human ATP8B1 = molecular target: T1, human ATP8B1 (Homo sapiens, UniProt O43520); test: Phospholipid-stimulated ATPase activity of full-length ATP8B1; format: biochemical
T1 sequence (O43520 1-1251): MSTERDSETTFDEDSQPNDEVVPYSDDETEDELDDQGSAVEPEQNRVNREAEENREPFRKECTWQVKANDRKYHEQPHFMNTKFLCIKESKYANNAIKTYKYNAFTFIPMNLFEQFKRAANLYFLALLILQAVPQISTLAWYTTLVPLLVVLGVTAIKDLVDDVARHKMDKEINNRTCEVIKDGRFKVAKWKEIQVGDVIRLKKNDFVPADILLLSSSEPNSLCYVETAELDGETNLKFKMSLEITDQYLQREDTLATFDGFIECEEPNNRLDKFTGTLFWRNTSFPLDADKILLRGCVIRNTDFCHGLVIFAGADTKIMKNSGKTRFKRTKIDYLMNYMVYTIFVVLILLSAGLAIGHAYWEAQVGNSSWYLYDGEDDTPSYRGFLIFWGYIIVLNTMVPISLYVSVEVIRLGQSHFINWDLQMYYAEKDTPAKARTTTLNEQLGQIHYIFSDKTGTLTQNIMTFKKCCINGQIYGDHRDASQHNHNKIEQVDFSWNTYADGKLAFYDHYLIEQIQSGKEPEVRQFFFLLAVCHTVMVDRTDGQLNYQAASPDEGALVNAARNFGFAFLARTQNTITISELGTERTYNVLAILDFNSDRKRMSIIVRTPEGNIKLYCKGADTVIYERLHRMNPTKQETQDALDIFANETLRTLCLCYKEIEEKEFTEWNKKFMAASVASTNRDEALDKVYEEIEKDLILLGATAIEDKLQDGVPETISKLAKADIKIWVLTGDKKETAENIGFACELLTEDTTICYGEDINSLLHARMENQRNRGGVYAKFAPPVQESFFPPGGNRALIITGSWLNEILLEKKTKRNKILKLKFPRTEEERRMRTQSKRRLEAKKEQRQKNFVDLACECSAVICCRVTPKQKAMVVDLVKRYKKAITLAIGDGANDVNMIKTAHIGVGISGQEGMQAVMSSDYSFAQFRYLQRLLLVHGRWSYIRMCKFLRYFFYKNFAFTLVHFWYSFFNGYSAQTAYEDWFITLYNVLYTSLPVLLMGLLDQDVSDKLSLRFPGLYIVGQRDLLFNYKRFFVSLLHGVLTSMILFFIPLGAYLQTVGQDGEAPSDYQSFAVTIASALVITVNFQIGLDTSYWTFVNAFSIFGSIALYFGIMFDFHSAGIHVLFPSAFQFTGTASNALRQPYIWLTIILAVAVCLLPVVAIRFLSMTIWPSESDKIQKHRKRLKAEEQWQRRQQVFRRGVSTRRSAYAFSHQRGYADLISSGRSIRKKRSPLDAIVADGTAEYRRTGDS
Description: FIG. 8E is a bar graph showing ATPase activity of ATP8B1 in presence of various lipids (300 µM).
FIG. 8F is a graph showing phospholipid concentration-dependent ATPase activity of ATP8B1. Graph representing data points of three independent experiments, values are mean±SD and fitted by a non-linear dose-dependent curve.
ATP8B1 deletion may affect PIP2 translocation due to changes in membrane properties or by indirectly influencing the activity of other proteins involved in lipid trafficking. To determine if ATP8B1 can directly flip PIP2, a cell-free system was reconstituted. The GST-tagged human ATP8B1 protein was cloned in a baculovirus, followed by transduction of insect Sf9 cells, and expression was confirmed by western blot using anti-GST antibody.
(§1) Next, we utilized reconstituted ATP8B1-proteoliposomes with NBD-labeled phospholipids and sodium dithionite quenching assay to measure phospholipid flip (FIG. 8G), as described before. A marked decrease in the fluorescence intensity of NBD-PIP2 was observed following dithionite quenching of ATP8B1 containing proteoliposomes vs. control liposomes, with ˜12% NBD-PIP2 flip in 5 min, ˜22% NBD-PIP2 flip in 30 min, and ˜27% NBD-PIP2 flipped in 60 min (FIG. 8H, 8I).

GsdmD = molecular target: T2, GsdmD (Homo sapiens, UniProt P57764); details: cited from earlier work
T2 sequence (P57764 1-484): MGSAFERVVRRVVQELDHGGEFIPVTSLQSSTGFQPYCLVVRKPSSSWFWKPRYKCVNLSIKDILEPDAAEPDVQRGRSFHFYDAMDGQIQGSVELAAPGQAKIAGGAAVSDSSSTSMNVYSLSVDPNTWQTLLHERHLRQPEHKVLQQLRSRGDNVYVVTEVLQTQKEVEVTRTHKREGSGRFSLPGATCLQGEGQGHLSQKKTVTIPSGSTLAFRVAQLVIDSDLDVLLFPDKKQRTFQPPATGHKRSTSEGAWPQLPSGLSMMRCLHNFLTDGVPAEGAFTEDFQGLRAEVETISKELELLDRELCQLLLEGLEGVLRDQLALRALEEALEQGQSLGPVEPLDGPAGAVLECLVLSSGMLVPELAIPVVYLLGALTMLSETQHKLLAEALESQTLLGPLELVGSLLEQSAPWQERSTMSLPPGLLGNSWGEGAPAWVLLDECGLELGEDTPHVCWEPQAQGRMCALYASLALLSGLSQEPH

ATP8B1 proteoliposomes = molecular target: T3, ATP8B1 proteoliposomes (Homo sapiens, UniProt O43520); test: NBD-phospholipid flip in ATP8B1 proteoliposomes, sodium dithionite quenching assay; format: biochemical; details: proteoliposomes vs. empty liposomes
T3 construct: The ATPase activity of full-length ATP8B1 was determined in the presence of various phospholipids; GST; made in house; host or cells: Sf9 insect cells (baculovirus)
T3 sequence (O43520 1-1251): T1 sequence (O43520 1-1251)
Description: FIG. 8G is a schematic diagram for PIP2 flip assay in ATP8B1 proteoliposomes vs. empty liposomes.
FIG. 8H is a graph showing sodium dithionite quenching of NBD-PIP2 on the outer side of the proteoliposomes vs. empty liposomes over 10 min, Triton-X-100 was used to quench all the remaining NBD-PIP2.
FIG. 8I is a graph showing the percentage PIP2 flipped over time in proteoliposomes vs. empty liposomes±sodium dithionite, ±Triton-X-100, data are from 3 independent experiments, values are mean±SD, **** show p<0.0001 by t-test.
FIG. 8J is a graph showing sodium dithionite quenching of NBD-PE on the outer side of the proteoliposomes vs. empty liposomes over 10 min, Triton-X-100 was used to quench the remaining inner leaflet NBD-PE.
FIG. 8K is a bar graph showing the percentage PE flip over time in proteoliposomes vs. empty liposomes±Sodium dithionite, ±Triton-X-100. […]
as §1

[1] = test system: HepG2 cells (WT or ATP8b1−/−); test: Confocal-microscopy-based NBD-phospholipid flip assay with BSA back-exchange; format: cell-based, human; details: after BSA wash, up to 60 min
Description: (§2) FIG. 8A is an image of WT or ATP8b1^−/− HepG2 cells pre-incubated with phospholipase inhibitors at 20° C. were supplemented with NBD-PIP2 followed by incubation for up to 60 min to allow lipid internalization. Cells were subjected to back-exchange with BSA, followed by TBSS wash, and visualization by confocal laser scanning microscopy. FIRE look-up table (ImageJ) was used to highlight intensity variations in PIP2 flip. Images are representative of three independent experiments. Scale bar: 20 μm.
as §2, with “8B” for “8A”, “NBD-PE” for “NBD-PIP2”
FIG. 8C is a graph showing quantification of flipped NBD-PIP2 in WT and ATP8b1^−/− HePG2 cells (N=25 cells, values are mean±SD; **** show p<0.0001 by t-test.
FIG. 8D is a graph showing quantification of flipped NBD-PE in WT and ATP8b1^−/− HePG2 cells (N=25 cells, values are mean±SD; **** show p<0.0001 by t-test. […]

Compound: CCCCCCCC/C=C\CCCCCCCC(=O)OC[C@H](COP(=O)(O)O[C@@H]1[C@H](O)[C@H](O)[C@@H](OP(=O)(O)O)[C@H](OP(=O)(O)O)[C@H]1O)OC(=O)CCCCCCC/C=C\CCCCCCCC [PIP2, phosphatidylinositol-4,5-bisphosphate]
ATPase activity of full-length ATP8B1 (human ATP8B1; 300 μM lipid): notable increase in ATPase activity

Compound: COC(=O)/C=C/C(=O)OC [dimethyl fumarate]
effect on GsdmD (GsdmD): promotes succination of GsdmD

NBD-lipid flip (ATP8B1 proteoliposomes): No significant changes
Compound: NBD-PE
flip of NBD-lipid in ATP8B1−/− vs. WT cells [1]: no differences

EC50 of stimulated activity of ATP8B1 relative to PIP2 (human ATP8B1; higher than PIP2): 1.75 fold
Compound: phosphatidylcholine [PC]
